Test results from ChEMBL document CHEMBL1201862, “PubChem BioAssay data set” (2004).
Calls of active or inactive are those of the source.

What was measured:
[1] = molecular target: T1, Sentrin-specific protease 8 (Homo sapiens, UniProt Q96LD8); format: functional;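 also: luminescence read-out of SENP8 inhibition, dose-response confirmation following an ultra-high-throughput screen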
T1 sequence (Q96LD8 whole entry): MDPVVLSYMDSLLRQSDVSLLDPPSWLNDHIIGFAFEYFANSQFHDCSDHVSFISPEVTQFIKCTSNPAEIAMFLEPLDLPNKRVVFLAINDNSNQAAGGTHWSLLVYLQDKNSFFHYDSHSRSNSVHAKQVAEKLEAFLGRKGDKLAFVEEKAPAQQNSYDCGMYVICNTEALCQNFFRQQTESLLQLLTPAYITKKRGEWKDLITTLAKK

Caspase-3 = molecular target: T2, Caspase-3 (Homo sapiens, UniProt P42574); format: functional;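 also: Dose-response selectivity test against caspase-3 for candidate inhibitors of sentrin-specific proteases (SENPs)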
T2 sequence (P42574 whole entry): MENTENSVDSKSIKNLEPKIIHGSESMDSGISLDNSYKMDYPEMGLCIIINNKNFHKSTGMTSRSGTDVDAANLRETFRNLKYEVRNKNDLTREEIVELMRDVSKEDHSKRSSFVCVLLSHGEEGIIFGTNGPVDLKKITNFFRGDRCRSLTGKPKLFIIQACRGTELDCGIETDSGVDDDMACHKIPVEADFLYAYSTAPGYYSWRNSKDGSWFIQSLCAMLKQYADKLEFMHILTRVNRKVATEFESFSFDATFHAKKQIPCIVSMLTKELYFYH

[2] = molecular target: T3, Sentrin-specific protease 6 (Homo sapiens, UniProt Q9GZR1); format: functional;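 also: Luminescence-based dose-response confirmatory assay of SENP6 inhibition, following up an ultra-high-throughput screen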
T3 sequence (Q9GZR1 whole entry): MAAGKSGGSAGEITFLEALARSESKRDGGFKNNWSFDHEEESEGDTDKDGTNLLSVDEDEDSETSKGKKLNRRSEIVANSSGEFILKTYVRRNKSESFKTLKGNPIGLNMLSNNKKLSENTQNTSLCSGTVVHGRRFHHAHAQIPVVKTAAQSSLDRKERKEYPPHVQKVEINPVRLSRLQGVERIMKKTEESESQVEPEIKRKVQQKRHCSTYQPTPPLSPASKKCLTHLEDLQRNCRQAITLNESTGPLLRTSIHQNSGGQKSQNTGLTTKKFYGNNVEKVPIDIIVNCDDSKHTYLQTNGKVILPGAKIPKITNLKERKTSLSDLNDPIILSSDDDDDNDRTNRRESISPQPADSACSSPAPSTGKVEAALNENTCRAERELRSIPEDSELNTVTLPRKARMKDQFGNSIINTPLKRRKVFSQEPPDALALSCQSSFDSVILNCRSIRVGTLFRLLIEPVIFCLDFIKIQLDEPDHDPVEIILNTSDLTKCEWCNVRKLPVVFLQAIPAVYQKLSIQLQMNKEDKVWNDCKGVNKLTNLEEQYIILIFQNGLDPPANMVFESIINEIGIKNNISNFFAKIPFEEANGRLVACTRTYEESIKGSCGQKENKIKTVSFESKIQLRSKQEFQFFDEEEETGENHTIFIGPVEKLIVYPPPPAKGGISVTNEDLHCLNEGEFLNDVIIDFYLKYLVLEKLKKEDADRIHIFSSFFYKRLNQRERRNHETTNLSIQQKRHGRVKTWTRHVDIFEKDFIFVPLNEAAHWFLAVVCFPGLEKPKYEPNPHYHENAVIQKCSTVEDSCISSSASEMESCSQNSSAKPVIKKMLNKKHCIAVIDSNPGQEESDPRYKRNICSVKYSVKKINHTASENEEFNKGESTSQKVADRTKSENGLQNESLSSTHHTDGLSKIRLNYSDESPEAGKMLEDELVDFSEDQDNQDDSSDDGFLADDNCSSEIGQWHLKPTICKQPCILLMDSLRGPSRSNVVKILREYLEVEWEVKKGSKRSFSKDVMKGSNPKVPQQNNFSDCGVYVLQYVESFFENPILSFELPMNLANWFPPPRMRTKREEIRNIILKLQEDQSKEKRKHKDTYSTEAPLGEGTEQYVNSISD

[3] = molecular target: T4, Sentrin-specific protease 7 (Homo sapiens, UniProt Q9BQF6); format: functional;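 also: Luminescence-based dose-response confirmation of ultra-high-throughput screening hits, measuring inhibition of SENP7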
T4 sequence (Q9BQF6 whole entry): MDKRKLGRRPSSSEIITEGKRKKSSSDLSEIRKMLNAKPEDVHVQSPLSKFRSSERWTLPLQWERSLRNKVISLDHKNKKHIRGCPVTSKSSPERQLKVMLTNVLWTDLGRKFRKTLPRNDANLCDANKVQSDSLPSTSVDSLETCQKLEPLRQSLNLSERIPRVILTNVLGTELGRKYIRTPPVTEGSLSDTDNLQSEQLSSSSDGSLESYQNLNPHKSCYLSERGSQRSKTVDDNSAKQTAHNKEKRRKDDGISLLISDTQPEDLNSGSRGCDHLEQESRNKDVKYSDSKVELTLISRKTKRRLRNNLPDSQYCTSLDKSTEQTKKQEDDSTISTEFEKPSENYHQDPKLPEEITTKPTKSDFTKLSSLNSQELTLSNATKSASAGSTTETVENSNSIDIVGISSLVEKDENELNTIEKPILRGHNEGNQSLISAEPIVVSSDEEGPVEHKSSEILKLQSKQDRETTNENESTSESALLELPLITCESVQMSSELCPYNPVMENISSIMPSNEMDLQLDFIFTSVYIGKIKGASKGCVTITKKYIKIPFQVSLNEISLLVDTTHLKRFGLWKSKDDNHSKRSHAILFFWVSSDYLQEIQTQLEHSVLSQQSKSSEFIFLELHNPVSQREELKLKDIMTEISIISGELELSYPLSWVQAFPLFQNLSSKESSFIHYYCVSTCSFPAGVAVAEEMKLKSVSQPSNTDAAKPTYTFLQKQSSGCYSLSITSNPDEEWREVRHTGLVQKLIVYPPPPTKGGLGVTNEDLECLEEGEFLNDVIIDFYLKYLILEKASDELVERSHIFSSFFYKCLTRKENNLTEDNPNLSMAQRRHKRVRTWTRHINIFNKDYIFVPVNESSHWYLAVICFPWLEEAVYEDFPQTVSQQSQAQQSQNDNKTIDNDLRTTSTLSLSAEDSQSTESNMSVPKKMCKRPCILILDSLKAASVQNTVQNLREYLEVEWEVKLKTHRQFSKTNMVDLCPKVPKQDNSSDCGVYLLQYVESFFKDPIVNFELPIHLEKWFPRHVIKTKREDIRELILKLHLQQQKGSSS

[4] = A549 cell cytotoxicity, dose response, cytotoxicity control, plate reader, cherry-pick, antagonist series (AID 743412); format: functional, cell-based
[5] = blockade of melanocortin 4 receptor signaling – cell-based, plate reader, cherry pick, counter-screen for LGR2 antagonist project, dose response (AID 743444); format: functional;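 also: transfected HEK 293 cells stimulated with alpha-MSH peptide; potency of inhibitors of the alpha-MSH evoked signal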
[6] = blockers of bursicon-stimulated LGR2 cAMP reporter – cell-based, HEK293, CRE-luciferase reporter, cherry pick, set 2, dose response (AID 743343); format: functional;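 also: transfected cells were stimulated with diluted bursicon conditioned medium after compound addition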
SN12K1 = test: cells; format: functional; conditions: Homo sapiens
P388/ADR = test: cells; format: functional; conditions: Mus musculus
[7] = A Cell Based Secondary Assay To Explore Cytotoxicity of Compounds that Sensitize Mycobacterium Tuberculosis to Beta-Lactam Antibiotics.; format: functional
[8] = HEK-293T viability loss after treatment – luminescence, T-cell screen hits, cytotoxicity control for TCR NF-kB inhibitor project, dose response (AID 489026); format: functional, cell-based;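 also: cells exposed to compound about 14 hours before the viability readout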
[9] = blockers of HIV-1 ZM109 envelope-driven cell-cell fusion – HeLa effector, CEM target cells, luciferase, cherry-pick, dose response (AID 652058); format: functional, cell-based;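 also: luciferase signal from HIV-1 Env mediated cell-cell fusion of effector and target cells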
[10] = HIV-1 AD8 envelope cell-cell fusion blockers – cherry-pick, dose response (AID 652062); format: functional, cell-based;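 also: luciferase signal from cell-cell fusion driven by HIV-1 clade B AD8 Env; potency is for inhibitors of fusion seen as a drop in luminescence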
[11] = P. falciparum Dd2 growth inhibitors, dose response, SYBR Green, cherry-picked samples (AID 1159567); format: functional, cell-based
[12] = growth inhibition of PfATP4-mutant resistant parasites – NITD609-resistant line, SYBR Green, dry powder, dose response (AID 1159571); format: functional, cell-based;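 also: parasites synchronized at ring stage by sorbitol before testing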
[13] = Dd2 malaria parasite growth inhibition potency – SYBR Green, dry powder samples, dose response (AID 1159566); format: functional, cell-based;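 also: potency for growth inhibition with lower SYBR green DNA signal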
[14] = growth inhibition of yeast DHODH-expressing 3D7 parasites – SYBR Green, dry powder samples, dose response (AID 1159570); format: functional, cell-based;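 also: parasite growth measured after 72 hours of compound exposure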
[15] = blockers of HIV-1 envelope-mediated cell-cell fusion – cherry-pick, dose response (AID 652057); format: functional, cell-based
Cytochrome P450 2C19 = Cytochrome P450 2C19 (Homo sapiens, UniProt P33261); test: Cytochrome panel assay with activity outcomes. Panel member name: p450-cyp2c19 Compounds with AC50 equal or less than 10 uM are considered active; format: functional; conditions: read-out: AC50
[16] = molecular target: Eukaryotic translation initiation factor 4E (Mus musculus, UniProt P63073); test: blockers of eIF4G binding by eIF4E – biochemical, TR-FRET, dose response (AID 855); format: functional;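 also: potency for disrupting eIF4E binding to eIF4GI seen as loss of FRET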
[17] = molecular target: T5, Carboxy-terminal domain RNA polymerase II polypeptide A small phosphatase 1 (Homo sapiens, UniProt Q9GZU7); test: CTDSP1 inhibitors, concentration-response, biochemical, absorbance readout, ultra-high-throughput screen actives (AID 540297); format: functional
T5 sequence (Q9GZU7 whole entry): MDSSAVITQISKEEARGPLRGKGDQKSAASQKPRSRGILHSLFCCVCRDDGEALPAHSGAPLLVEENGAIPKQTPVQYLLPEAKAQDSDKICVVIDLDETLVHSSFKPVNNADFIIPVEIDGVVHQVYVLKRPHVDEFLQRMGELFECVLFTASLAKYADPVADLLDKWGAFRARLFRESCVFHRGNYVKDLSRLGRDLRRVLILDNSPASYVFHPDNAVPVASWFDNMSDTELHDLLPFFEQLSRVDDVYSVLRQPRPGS

Eukaryotic translation initiation factor 4E, sequence (P63073 whole entry, the tested form may be a part): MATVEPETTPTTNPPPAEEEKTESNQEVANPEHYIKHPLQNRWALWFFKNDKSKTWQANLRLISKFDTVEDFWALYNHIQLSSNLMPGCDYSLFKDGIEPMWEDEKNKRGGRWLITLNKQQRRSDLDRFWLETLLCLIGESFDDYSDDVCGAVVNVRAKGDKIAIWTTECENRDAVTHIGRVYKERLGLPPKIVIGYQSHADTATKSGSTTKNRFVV
Cytochrome P450 2C19, sequence (P33261 whole entry): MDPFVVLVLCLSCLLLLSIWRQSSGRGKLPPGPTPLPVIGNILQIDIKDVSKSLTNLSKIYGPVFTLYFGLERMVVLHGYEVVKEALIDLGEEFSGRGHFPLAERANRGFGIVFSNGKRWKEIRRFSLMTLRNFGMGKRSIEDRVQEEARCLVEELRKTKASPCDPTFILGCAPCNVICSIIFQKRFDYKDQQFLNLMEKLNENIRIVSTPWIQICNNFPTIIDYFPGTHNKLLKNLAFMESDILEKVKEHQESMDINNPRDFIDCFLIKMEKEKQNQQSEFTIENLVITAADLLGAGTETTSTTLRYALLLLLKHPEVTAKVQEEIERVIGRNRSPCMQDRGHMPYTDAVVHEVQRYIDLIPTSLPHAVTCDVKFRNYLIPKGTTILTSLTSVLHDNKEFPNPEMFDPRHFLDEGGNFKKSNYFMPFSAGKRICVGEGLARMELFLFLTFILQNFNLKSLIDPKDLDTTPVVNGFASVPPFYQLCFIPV

SMILES: Cc1ccc(C(=O)c2cc3ccccc3o2)cc1C
- IC50 [1]: 10.6 µM (active)
- IC50 (Caspase-3): 11.2 µM (active)
- IC50 [2]: 6.41 µM (active)
- IC50 [3]: 3.18 µM (active)

SMILES: Cc1ccc(S(=O)(=O)N2CCCCC2)cc1NC(=O)c1ccc2c(=O)n3c(nc2c1)CCCCC3
- AC50 [4]: 26.8 µM (active)
- AC50 [5]: 12.4 µM (active)
- AC50 [6]: 12.8 µM (active)

SMILES: O=C(Nc1ccc2ncccc2c1)c1cccc(Br)c1
- IC50 [1]: 28.7 µM (active)
- IC50 (Caspase-3): 32.1 µM (active)
- IC50 [2]: 29.1 µM (active)
- IC50 [3]: 8.67 µM (active)

SMILES: C=C1C(O)C2(O)OCC34C(CC5C(C)=CC(=O)C(O)C5(C)C23)OC(=O)C(OC(=O)C/C=C(\C)CCCCC)C14 (stereo unspecified)
- GI50 (SN12K1): 0.0125 µM (active)
- GI50 (P388/ADR): 0.0933 µM (active)

SMILES: CCNC(=O)CCn1nc(-c2ccc(Cl)cc2)c2ccccc2c1=O
- CC50 [7]: > 40 µM (active)

SMILES: COc1cc(C(=O)Nc2ccc3c(c2)CCN3C(C)=O)cc(OC)c1OC
- IC50 [8]: > 80 µM (inactive)

SMILES: COc1ccc(S(=O)(=O)Nc2ccc3c(c2)CC(=O)N([C@H](C)CO)C[C@H](C)[C@H](CN(C)S(=O)(=O)c2ccc(C)cc2)O3)cc1
- AC50 [9]: 0.33 µM (active)
- AC50 [10]: 1.01 µM (active)
- AC50 [11]: 1.89 µM (active)
- AC50 [12]: 1.6 µM (active)
- AC50 [13]: 1.88 µM (active)
- AC50 [14]: 1.89 µM (active)
- AC50 [15]: < 0.26 µM (active)

SMILES: Cc1ccc(-n2c(SCC(=O)NCc3ccco3)nc3sc4c(c3c2=O)CC(C)(C)SC4)cc1
- AC50 (Cytochrome P450 2C19): 8.91 µM (inconclusive)
- CC50 [7]: > 40 µM (active)

SMILES: O=C(Cc1cccs1)Nc1ccc(S(=O)(=O)N2CCCC2)cc1
- IC50 [16]: 50 µM (inactive)
- IC50 [17]: 5.04 µM (active)
